The results in this text go back to patent US11110091B2, “Modulators of toll-like receptors” (Gilead Sciences, Inc., priority 2008, dated 2021).

Bounds are passed on as bounds.

For this test, the system named is human Peripheral Blood Mononuclear Cell (PMBC). The experiment in a line: PBMC assay: cytokine (IFN-α) stimulation at 24 hours. Particulars: lowest concentration stimulating IFN-α production at least 3-fold over background, Luminex, read-out: IFN MEC. Format: cell-based. How it is done: Assays were conducted to determine cytokine stimulation at 24 hours from human Peripheral Blood Mononuclear Cell (PMBC) using the compounds of the present invention. The assays were run in duplicate, with 8-point, half-log dilution curves. The compounds of the present invention were diluted from 10 mM DMSO solution. Cell supernatants are assayed directly for IFNα and 1:10 dilution for TNFα. The assays were performed in a similar fashion as described in Bioorg. […] Specifically, cryo-preserved PBMCs were thawed and seeded 96 well plates with 750,000 cells/well in 190 μL/well cell media. The PBMCs were then incubated for 1 hour at 37° C. at 5% CO2. Then, the compounds of the present invention were added in 10 μL cell media at 8 point, half-log dilution titration. The plates were incubated at 37° C. and 5% CO2 for 24 hours and then spinned at 1200 rpm for 10 min, which was followed by collecting supernatant and storing the same at −80° C. Cytokine secretion was assayed with Luminex and Upstate multi-plex kits, using a Luminex analysis instrument. The IFN-α MEC value for a compound was the lowest concentration at which the compound stimulated IFN-α production at least 3-fold over the background as determined using the assay method above.

`CCOC(=O)CN(Cc1cccc(CN2CCCC2)c1)c1nc(O[C@@H](C)COC)nc(N)c1[N+](=O)[O-]` [Compound 86]: the minimal effective concentration was at most 0.03 µM. Turning to `COCCOc1nc(N)c2c(n1)N(Cc1cccc(CN3CCCC3)c1)CC(=O)N2` [Example 2], the minimal effective concentration was at most 0.03 µM. Regarding `CCCCOc1nc(N)c2c(n1)N(Cc1cccc(CN3CCCC3)c1)C1(CC1)C(=O)N2` [Example 3, 4-Amino-2-n-butoxy-7-(1′″,2′″-ethylidene)-8-[3′-(pyrrolidin-1″-ylmethyl)-benzyl]-5,6,7,8-tetrahydropteridine-6-one], the minimal effective concentration was above 0.03 µM. For `CCCCOc1nc(N)c2c(n1)N(Cc1ccc(CN3CCCC3)cc1)CC(=O)N2` [Example 4, 4-amino-2-n-butoxy-8-[4′-(pyrrolidin-1″-ylmethyl)-benzyl]-5,6,7,8-tetrahydropteridin-6-one], the minimal effective concentration was at most 0.03 µM. Take `Nc1nc(OCC2CC2)nc2c1NC(=O)CN2Cc1cccc(CN2CCCC2)c1` [Example 5, 4-amino-2-{(cyclopropyl)methoxy}-8-[3′-(pyrrolidin-1″-ylmethyl)-benzyl]-5,6,7,8-tetrahydropteridin-6-one]: the minimal effective concentration is above 0.03 µM. Take `CC1(COc2nc(N)c3c(n2)N(Cc2cccc(CN4CCCC4)c2)CC(=O)N3)CC1` [Example 6, 4-amino-2-{(1′″-methylcycloprop-1′″-yl)methoxy}-8-[3′-(pyrrolidin-1″-ylmethyl)-benzyl]-5,6,7,8-tetrahydropteridin-6-one]: the minimal effective concentration was above 0.03 µM.

For the compound `Nc1nc(OCC2CCC2)nc2c1NC(=O)CN2Cc1cccc(CN2CCCC2)c1` [Example 7, 4-amino-2-{(cyclobutyl)methoxy}-8-[3′-(pyrrolidin-1″-ylmethyl)-benzyl]-5,6,7,8-tetrahydropteridin-6-one], the minimal effective concentration was above 0.03 µM. Take `Nc1nc(OCC2CCCC2)nc2c1NC(=O)CN2Cc1cccc(CN2CCCC2)c1` [Example 8, 4-amino-2-{(cyclopentyl)methoxy}-8-[3′-(pyrrolidin-1″-ylmethyl)-benzyl]-5,6,7,8-tetrahydropteridin-6-one]: the minimal effective concentration is above 0.03 µM. As for `Nc1nc(OCCC2CC2)nc2c1NC(=O)CN2Cc1cccc(CN2CCCC2)c1` [Example 9, 4-amino-2-{2′″-(cyclopropyl)ethoxy}-8-[3′-(pyrrolidin-1″-ylmethyl)-benzyl]-5,6,7,8-tetrahydropteridin-6-one], the minimal effective concentration is at most 0.03 µM. In the case of `CC(C)COc1nc(N)c2c(n1)N(Cc1cccc(CN3CCCC3)c1)CC(=O)N2` [Example 10], the minimal effective concentration was above 0.03 µM. The figure for `CC(C)CCOc1nc(N)c2c(n1)N(Cc1cccc(CN3CCCC3)c1)CC(=O)N2` [Example 11] is above 0.03 µM.

Consider `CCCCCOc1nc(N)c2c(n1)N(Cc1cccc(CN3CCCC3)c1)CC(=O)N2` [Example 12], for which the minimal effective concentration is above 0.03 µM.

Consider `Nc1nc(OCC2CCCCC2)nc2c1NC(=O)CN2Cc1cccc(CN2CCCC2)c1` [Example 13], for which the minimal effective concentration was above 0.03 µM.

Take `CC(C)(C)COc1nc(N)c2c(n1)N(Cc1cccc(CN3CCCC3)c1)CC(=O)N2` [Example 14]: the minimal effective concentration was above 0.03 µM. Turning to `Nc1nc(OCc2ccccc2)nc2c1NC(=O)CN2Cc1cccc(CN2CCCC2)c1` [Example 15], the minimal effective concentration is above 0.03 µM.

As to `Nc1nc(OCc2cccnc2)nc2c1NC(=O)CN2Cc1cccc(CN2CCCC2)c1` [Example 16], the minimal effective concentration was above 0.03 µM.

For the compound `Nc1nc(OCC2CCOC2)nc2c1NC(=O)CN2Cc1cccc(CN2CCCC2)c1` (centres unmarked) [Example 17], the minimal effective concentration is above 0.03 µM. Regarding `COP(=O)(CCOc1nc(N)c2c(n1)N(Cc1cccc(CN3CCCC3)c1)CC(=O)N2)OC` [Example 18], the minimal effective concentration is above 0.03 µM. `Nc1nc(OCCn2ccnc2)nc2c1NC(=O)CN2Cc1cccc(CN2CCCC2)c1` [Example 19]: the minimal effective concentration was above 0.03 µM. For `CS(=O)(=O)CCOc1nc(N)c2c(n1)N(Cc1cccc(CN3CCCC3)c1)CC(=O)N2` [Example 20] the value was above 0.03 µM; for `Nc1nc(OC2CCCC2)nc2c1NC(=O)CN2Cc1cccc(CN2CCCC2)c1` [Example 21], at most 0.03 µM. Consider `Nc1nc(OCCN2CCCC2=O)nc2c1NC(=O)CN2Cc1cccc(CN2CCCC2)c1` [Example 22], for which the minimal effective concentration was above 0.03 µM. The figure for `Nc1nc(OCCOc2ccccc2)nc2c1NC(=O)CN2Cc1cccc(CN2CCCC2)c1` [Example 23] is above 0.03 µM; for `CCCC(C)Oc1nc(N)c2c(n1)N(Cc1cccc(CN3CCCC3)c1)CC(=O)N2` (centres unmarked) [Example 24] it is at most 0.03 µM; for `CCC(CC)Oc1nc(N)c2c(n1)N(Cc1cccc(CN3CCCC3)c1)CC(=O)N2` [Example 25] it is at most 0.03 µM. For the compound `CCCCSc1nc(N)c2c(n1)N(Cc1cccc(CN3CCCC3)c1)CC(=O)N2` [Example 26], the minimal effective concentration is above 0.03 µM. `Nc1nc(OCCCCO)nc2c1NC(=O)CN2Cc1cccc(CN2CCCC2)c1` [Example 27]: the minimal effective concentration was above 0.03 µM. Turning to `CC(C)(O)CCOc1nc(N)c2c(n1)N(Cc1cccc(CN3CCCC3)c1)CC(=O)N2` [Example 28], the minimal effective concentration was above 0.03 µM. `Nc1nc(OCC2CCCO2)nc2c1NC(=O)CN2Cc1cccc(CN2CCCC2)c1` (centres unmarked) [Example 29]: the minimal effective concentration was above 0.03 µM. For `Nc1nc(OCC2CCOCC2)nc2c1NC(=O)CN2Cc1cccc(CN2CCCC2)c1` [Example 30] the value was at most 0.03 µM. For `CCC(CC)COc1nc(N)c2c(n1)N(Cc1cccc(CN3CCCC3)c1)CC(=O)N2` [Example 31], the minimal effective concentration is at most 0.03 µM. As for `CCCCNc1nc(N)c2c(n1)N(Cc1cccc(CN3CCCC3)c1)CC(=O)N2` [Example 32], the minimal effective concentration was above 0.03 µM. `COCCNc1nc(N)c2c(n1)N(Cc1cccc(CN3CCCC3)c1)CC(=O)N2` [Example 33]: the minimal effective concentration is above 0.03 µM. As to `CC(C)(C)CNc1nc(N)c2c(n1)N(Cc1cccc(CN3CCCC3)c1)CC(=O)N2` [Example 34], the minimal effective concentration is above 0.03 µM.

For `Nc1nc(NC2CC2)nc2c1NC(=O)CN2Cc1cccc(CN2CCCC2)c1` [Example 35], the minimal effective concentration was above 0.03 µM.

Consider `Nc1nc(NC2CCCCC2)nc2c1NC(=O)CN2Cc1cccc(CN2CCCC2)c1` [Example 36], for which the minimal effective concentration is above 0.03 µM. Regarding `COC[C@H](C)Nc1nc(N)c2c(n1)N(Cc1cccc(CN3CCCC3)c1)CC(=O)N2` [Example 37], the minimal effective concentration is at most 0.03 µM. The figure for `Nc1nc(NCc2ccco2)nc2c1NC(=O)CN2Cc1cccc(CN2CCCC2)c1` [Example 38] is at most 0.03 µM. Consider `Nc1nc(NCC2CC2)nc2c1NC(=O)CN2Cc1cccc(CN2CCCC2)c1` [Example 39], for which the minimal effective concentration is at most 0.03 µM. The figure for `Nc1nc(NC2CCC2)nc2c1NC(=O)CN2Cc1cccc(CN2CCCC2)c1` [Example 40] is at most 0.03 µM; for `Nc1nc(NC2CCCC2)nc2c1NC(=O)CN2Cc1cccc(CN2CCCC2)c1` [Example 41] it is at most 0.03 µM. Turning to `Nc1nc(N2CCC2)nc2c1NC(=O)CN2Cc1cccc(CN2CCCC2)c1` [Example 42], the minimal effective concentration was above 0.03 µM. For the compound `Nc1nc(N2CCCC2)nc2c1NC(=O)CN2Cc1cccc(CN2CCCC2)c1` [Example 43], the minimal effective concentration is at most 0.03 µM.

As for `CS(=O)(=O)CCNc1nc(N)c2c(n1)N(Cc1cccc(CN3CCCC3)c1)CC(=O)N2` [Example 44], the minimal effective concentration was above 0.03 µM. On to `CCOP(=O)(CCNc1nc(N)c2c(n1)N(Cc1cccc(CN3CCCC3)c1)CC(=O)N2)OCC` [Example 45], for which the minimal effective concentration was above 0.03 µM. Take `Nc1nc(N[C@@H]2CCOC2)nc2c1NC(=O)CN2Cc1cccc(CN2CCCC2)c1` [Example 46]: the minimal effective concentration is above 0.03 µM. For `CCCCOc1nc(N)c2c(n1)N(Cc1cccc(CN3CCCC3)c1)CC(=O)N2` [Example 49, 4-amino-2-n-butoxy-8-[3′-(pyrrolidin-1″-ylmethyl)-benzyl]-5,6,7,8-tetrahydropteridin-6-one] the value was at most 0.03 µM.

With `CCCCOc1nc(N)c2c(n1)N(Cc1cccc(CN3CCCC3)c1)CCC(=O)N2` [Example 50], the minimal effective concentration was above 0.03 µM. Regarding `CCCCOc1nc(N)c2c(n1)N(Cc1ccc3c(c1)CNCC3)CC(=O)N2` [Example 51], the minimal effective concentration is at most 0.03 µM. As for `CCCCOc1nc(N)c2c(n1)N(Cc1ccc3c(c1)CN(CC)CC3)CC(=O)N2` [Example 52], the minimal effective concentration was at most 0.03 µM. As for `CCCCCc1nc(N)c2c(n1)N(Cc1cccc(CN3CCCC3)c1)CC(=O)N2` [Example 53], the minimal effective concentration was above 0.03 µM. The figure for `CCCCOc1nc(N)c2c(n1)N(Cc1cccc(CN3CCC(C(=O)OC)CC3)c1)CC(=O)N2` [Example 54] is above 0.03 µM; for `Nc1nc(OCCC(F)(F)F)nc2c1NC(=O)CN2Cc1cccc(CN2CCCC2)c1` [Example 55] it is at most 0.03 µM; for `Nc1nc(OCCCC(F)(F)F)nc2c1NC(=O)CN2Cc1cccc(CN2CCCC2)c1` [Example 56] it is at most 0.03 µM.

For the compound `CCCCOc1nc(N)c2c(n1)N(Cc1ccccc1CN1CCCC1)CC(=O)N2` [Example 57], the minimal effective concentration is above 0.03 µM. For the compound `CCC[C@@H](C)Oc1nc(N)c2c(n1)N(Cc1cccc(CN3CCCC3)c1)CC(=O)N2` [Example 58], the minimal effective concentration was above 0.03 µM.
